Experimental data from US9974792B2, “Methods for treating cancers” (Gilead Sciences, Inc., priority 2013, dated 2018).

Tests used:
human subjects with CLL = experiment: Example 1: investigator assessed nodal response in CLL subjects; format: in vivo; details: CLL subjects (n=29); 800 mg BID fasting
From the text: The sample size was 10-40/arm.

[1] = tested on: phosphorylated Blnk in CD19+CD5+ circulating tumor cells; experiment: Example 1: BCR-mediated signaling, intracellular phosphoprotein flow cytometry; format: in vivo, human; details: Days 8 and 29 vs Day 1; CLL subjects (n=35)
From the text: (§1) Nominal p-values from tests of mean change of Day 8 and 29 from Day 1 using mixed model for repeated measures are <0.0005.

[2] = tested on: phosphorylated Btk in CD19+CD5+ circulating tumor cells; experiment: as above; format: in vivo, human; details: Days 8 and 29 vs Day 1; CLL subjects (n=35)
From the text: as §1

[3] = tested on: phosphorylated Syk in CD19+CD5+ circulating tumor cells; experiment: as above; format: in vivo, human; details: Days 8 and 29 vs Day 1; CLL subjects (n=35)
From the text: as §1

[4] = tested on: subjects with relapsed or refractory CLL
Experimental: The safety and efficacy of entospletinib was tested in a phase 2 trial in separate cohorts of subjects with CLL, indolent non-Hodgkin lymphoma (iNHL), mantle cell lymphoma (MCL), or diffuse large B-cell lymphoma (DLBCL). This trial was registered at www.clinicaltrials.gov as #NCT01799889.
A phase 2, open-label, single-agent study was completed to evaluate the efficacy, safety, tolerability, and pharmacodynamics of entospletinib in subjects with relapsed or refractory hematologic malignancies.
Subjects who were at least 18 years of age with a documented diagnosis of CLL, as established by the International Workshop on CLL, with progressive disease (PD) were eligible for the study. […] The presence of radiographically measurable lymphadenopathy or extranodal lymphoid malignancy as assessed by computed tomography (CT) or magnetic resonance imaging (MRI) was required for enrollment. […] A Karnofsky performance status of at least 60% and a life expectancy of at least 3 months were required. Required screening laboratory data were collected within 5 weeks before administration of study drug. Subjects with any degree of neutropenia, thrombocytopenia, or anemia attributed to the malignancy by the treating physician were eligible to enroll.
Treatment with entospletinib was at a dose of 800 mg twice a day over 28-day cycles under fasted conditions. Fasting was defined as no food or liquids other than water for 2 hours pre- and 1 hour post-dose.
CT or MRI scans were used to document sites of disease, identify target lesions, and assess response and disease progression. […] The findings of an independent review committee were used for analyses of PFS and other tumor control end points.
Secondary end points included tolerability, objective response rate (ORR), duration of response (DOR), time to response, and lymph node response rate. […] Exploratory end points included plasma drug concentrations and pharmacodynamic biomarkers.
PFS was defined as the interval from start of treatment to disease progression or death from any cause and analyzed using Kaplan-Meier methods. The findings of the Independent Review Committee (IRC) were considered primary for analyses of PFS and other tumor control responses. […] DOR was defined as the time from when the first response (CR or PR) was achieved until the earlier of the first documentation of definitive disease progression or death from any cause.

[5] = Example 2: entospletinib plasma pharmacokinetics; format: in vivo, human; details: 800 mg twice a day, fasted
From the text: Clinic visits, including laboratory tests and pharmacodynamic measurements, were scheduled for day 1 of each 28-day cycle. Blood samples for pharmacokinetic analyses of entospletinib were collected on day 1 of each 28-day cycle, on days 8, 15, and 22 of cycle 1 and on day 15 of cycle 2. Additional safety monitoring visits took place on days 8, 15, and 22 of cycle 1 and day 15 of cycle 2.

[6] = tested on: human subjects with CLL or NHL; experiment: Example 1: safety, disposition and adverse events (Safety Data Set);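 also: evaluated subjects had CLL, FL, DLBCL, MCL, LPL, SLL or MZL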
Experimental: Subjects having various hematologic malignancies were evaluated, including subjects with chronic lymphocytic leukemia (CLL), follicular lymphoma (FL), diffuse large B-cell lymphoma (DLBCL), mantle cell lymphoma (MCL), lymphoplasmacytic lymphoma (LPL), small lymphocytic lymphoma (SLL), and marginal zone lymphoma (MZL). The sample size was 10-40/arm.
Alanine aminotransferase (ALT) was also measured in the subjects.

[7] = out of 78 subjects, 800 mg BID fasting

Structure (SMILES): c1cn2cc(-c3ccc4cn[nH]c4c3)nc(Nc3ccc(N4CCOCC4)cc3)c2n1 [compound of formula I, 6-(1H-indazol-6-yl)-N-(4-morpholinophenyl)imidazo[1,2-a]pyrazin-8-amine]
- overall nodal response rate (human subjects with CLL): 69%
- phosphorylated Blnk in CD19+CD5+ circulating tumor cells [1]: downregulation
- phosphorylated Btk in CD19+CD5+ circulating tumor cells [2]: downregulation
- phosphorylated Syk in CD19+CD5+ circulating tumor cells [3]: downregulation
- DOR exceeded by seventy-five percent of subjects ([4]; 23 responding CLL subjects): > 6.5 months
- median DOR ([4]; 23 responding CLL subjects): not yet been reached
- subjects achieving at least a 50% decrease in SPD from baseline ([4]; 39 evaluable CLL subjects): 61.5%
- subjects achieving reduction in adenopathy ([4]; 39 evaluable CLL subjects): 94.5%
- subjects with a less than 50% decrease in SPD from baseline ([4]; 39 evaluable CLL subjects): 33%
- Discontinued study drug: AEs, % ([4]; CLL N = 41): (8.8%)
- Discontinued study drug: Death, % ([4]; CLL N = 41): (2.4%)
- Discontinued study drug: Progressive disease, % ([4]; CLL N = 41): (34.1%)
- PFS exceeded by seventy-five percent of the subjects ([4]; CLL cohort): > 5.4 months
- death (PFS event), % ([4]; CLL cohort, 41 subjects): 2.4%
- subjects with PFS events, % ([4]; CLL cohort, 41 subjects): 31.7%
- subjects with disease progression, % ([4]; CLL cohort, 41 subjects): 29.3%
- 24 weeks PFS (primary end point) ([4]; CLL cohort, 41 subjects, median follow up 5.5 months): 69.8%
- Median PFS ([4]; CLL cohort, median follow up 5.5 months): not yet been reached
- ORR ([4]; CLL subjects): 56.1%
- subjects achieving a CR ([4]; CLL subjects): no subject
- subjects achieving a PR ([4]; CLL subjects): 23 subjects
- subjects with dose reduced to 400 mg ([4]; CLL subjects): 4.9%
- subjects with dose reduced to 600 mg ([4]; CLL subjects): 14.6%
- subjects with progressive disease (best response) ([4]; CLL subjects): 2.4%
- subjects with stable disease ([4]; CLL subjects): 44%
- time for mean absolute lymphocyte count to return to baseline ([4]; CLL subjects): approximately 3 months
- nodal response (50% reduction in SPD) with persistent lymphocytosis, % ([4]; CLL subjects with stable disease): 4.9%
- nodal response with persistent lymphocytosis, subjects ([4]; CLL subjects, additional to ORR): 2 subjects
- subjects requiring at least one dose reduction from the starting dose ([4]; CLL subjects, starting dose 800 mg twice a day): 19.5%
- mean absolute lymphocyte count ([4]; day 8, rose from 50,090): 72,980 lymphocytes per microliter
- responding subjects with a PR at the first post-baseline evaluation ([4]; of 23 responding subjects, scheduled at week 8): 65.2%
- differences in ORR within subgroups ([4]; sex, age, number of prior therapies, IGHV mutation status, 17p deletion/TP53 mutation status): no significant differences
- Ctrough, mean (% coefficient of variation) [5]: 1100 (44%) ng/mL
- Cmax ([5]; human, oral, read-out: Cmax, mean (% coefficient of variation)): 1490 ng/mL
- Discontinuing study drug: Adverse Events, % ([6]; ALL N = 78): (14.1%)
- Discontinuing study drug: Progressive Disease, % ([6]; ALL N = 78): (19.2%)
- Discontinuing study drug: Related AEs, % ([6]; ALL N = 78): (7.7%)
- Discontinuing study drug: Adverse Events, % ([6]; CLL N = 39): (7.7%)
- Discontinuing study drug: Progressive Disease, % ([6]; CLL N = 39): (10.3%)
- Discontinuing study drug: Related AEs, % ([6]; CLL N = 39): (5.1%)
- Discontinuing study drug: Adverse Events, % ([6]; NHL N = 39): (20.5%)
- Discontinuing study drug: Progressive Disease, % ([6]; NHL N = 39): (28.2%)
- Discontinuing study drug: Related AEs, % ([6]; NHL N = 39): (10.3%)
- Any event, All Grades, % ([6]; Safety Data Set N=78): (93.6) %
- Constipation, All Grades, % ([6]; Safety Data Set N=78): (21.8) %
- Constipation, Grade 1 ([6]; Safety Data Set N=78): 11
- Constipation, Grade 2 ([6]; Safety Data Set N=78): 5
- Constipation, Grade 3 ([6]; Safety Data Set N=78): 1
- Cough, All Grades, % ([6]; Safety Data Set N=78): (14.1) %
- Cough, Grade 1 ([6]; Safety Data Set N=78): 9
- Cough, Grade 2 ([6]; Safety Data Set N=78): 1
- Cough, Grade 3 ([6]; Safety Data Set N=78): 1
- Decreased appetite, All Grades, % ([6]; Safety Data Set N=78): (20.5) %
- Decreased appetite, Grade 1 ([6]; Safety Data Set N=78): 10
- Decreased appetite, Grade 2 ([6]; Safety Data Set N=78): 6
- Diarrhea, All Grades, % ([6]; Safety Data Set N=78): (28.2) %
- Diarrhea, Grade 1 ([6]; Safety Data Set N=78): 20
- Diarrhea, Grade 2 ([6]; Safety Data Set N=78): 2
- Dizziness, All Grades, % ([6]; Safety Data Set N=78): (17.9) %
- Dizziness, Grade 1 ([6]; Safety Data Set N=78): 14
- Dyspepsia, All Grades, % ([6]; Safety Data Set N=78): (10.3) %
- Dyspepsia, Grade 1 ([6]; Safety Data Set N=78): 3
- Dyspepsia, Grade 2 ([6]; Safety Data Set N=78): 5
- Fatigue, All Grades, % ([6]; Safety Data Set N=78): (43.6) %
- Fatigue, Grade 1 ([6]; Safety Data Set N=78): 13
- Fatigue, Grade 2 ([6]; Safety Data Set N=78): 16
- Fatigue, Grade 3 ([6]; Safety Data Set N=78): 5
- Headache, All Grades, % ([6]; Safety Data Set N=78): (20.5) %
- Headache, Grade 1 ([6]; Safety Data Set N=78): 13
- Headache, Grade 2 ([6]; Safety Data Set N=78): 2
- Headache, Grade 3 ([6]; Safety Data Set N=78): 1
- Insomnia, All Grades, % ([6]; Safety Data Set N=78): (14.1) %
- Insomnia, Grade 1 ([6]; Safety Data Set N=78): 8
- Insomnia, Grade 2 ([6]; Safety Data Set N=78): 3
- Nausea, All Grades, % ([6]; Safety Data Set N=78): (30.8) %
- Nausea, Grade 1 ([6]; Safety Data Set N=78): 18
- Nausea, Grade 2 ([6]; Safety Data Set N=78): 4
- Nausea, Grade 3 ([6]; Safety Data Set N=78): 2
- Oedema peripheral, All Grades, % ([6]; Safety Data Set N=78): (12.8) %
- Oedema peripheral, Grade 1 ([6]; Safety Data Set N=78): 8
- Oedema peripheral, Grade 2 ([6]; Safety Data Set N=78): 2
- Pyrexia, All Grades, % ([6]; Safety Data Set N=78): (19.2) %
- Pyrexia, Grade 1 ([6]; Safety Data Set N=78): 9
- Pyrexia, Grade 2 ([6]; Safety Data Set N=78): 6
- Vomiting, All Grades, % ([6]; Safety Data Set N=78): (10.3) %
- Vomiting, Grade 1 ([6]; Safety Data Set N=78): 6
- Vomiting, Grade 2 ([6]; Safety Data Set N=78): 2
- Grade 3 and 4 reversible ALT elevations, % of subjects [6, 7]: 12%
- Grade 3 and 4 reversible ALT elevations, number of subjects [6, 7]: 9 subjects
